What all share (design): purchased Milipore (Millipore)
Assay [1] deals with T1, Human adrenergic α1B receptor (Homo sapiens, UniProt P35368).
T1 sequence (P35368 1-520): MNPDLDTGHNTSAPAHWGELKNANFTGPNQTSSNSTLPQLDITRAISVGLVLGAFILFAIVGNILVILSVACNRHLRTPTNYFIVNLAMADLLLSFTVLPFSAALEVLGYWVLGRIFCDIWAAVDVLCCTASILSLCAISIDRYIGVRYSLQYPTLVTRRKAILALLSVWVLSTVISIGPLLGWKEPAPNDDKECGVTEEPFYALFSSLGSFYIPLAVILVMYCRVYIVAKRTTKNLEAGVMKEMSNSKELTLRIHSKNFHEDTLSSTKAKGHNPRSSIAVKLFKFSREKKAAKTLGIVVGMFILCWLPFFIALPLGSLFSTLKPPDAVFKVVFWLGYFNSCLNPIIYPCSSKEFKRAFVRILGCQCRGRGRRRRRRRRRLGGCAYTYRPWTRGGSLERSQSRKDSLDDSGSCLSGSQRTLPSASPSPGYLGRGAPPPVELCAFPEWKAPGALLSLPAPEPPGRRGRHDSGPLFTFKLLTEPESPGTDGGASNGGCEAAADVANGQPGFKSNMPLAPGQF
As to the kind of experiment: Radioligand binding, adrenergic α1B (Protocol Group B). The following applies: Protocol Group B; for Percentage inhibition of ligand binding, Adrenergic α1B (0.1 μM): 0.1 μM compound; for Percentage inhibition of ligand binding, Adrenergic α1B (0.3 μM): 0.3 μM compound. How it is done:
To evaluate the activity of compounds in radioligand binding assays, Human adrenergic α1B receptor obtained from recombinant cell membrane from Milipore. Binding experiments were carried out in Tris-HCl buffer (50 mM Tris-HCl buffer, pH 7.4, 10 mM Mgcl2, 1 mM EDTA) as recommended by Milipore. Compounds were incubated with 0.3 nM [^3H]Prazosin for 60 min at 25° C. Non-specific binding was estimated in the presence of 10 μM prazosin. Receptor proteins were harvested on 0.33% PEI(poly-ethylenemine) soaked GFC filter mat, the specifically bound [^3H]Prazosin were counted to determine total binding. Compounds were screened at various concentrations, using 1% DMSO as vehicle. percent inhibition of specific binding was determined. Biochemical assay results are presented as the percent Inhibition of specific binding in Table B1b, or estimated Ki values in Table B1c.

For assay [2], the target named is T2, Human adrenergic α2B receptor (Homo sapiens, UniProt P18089).
T2 sequence (P18089 1-450): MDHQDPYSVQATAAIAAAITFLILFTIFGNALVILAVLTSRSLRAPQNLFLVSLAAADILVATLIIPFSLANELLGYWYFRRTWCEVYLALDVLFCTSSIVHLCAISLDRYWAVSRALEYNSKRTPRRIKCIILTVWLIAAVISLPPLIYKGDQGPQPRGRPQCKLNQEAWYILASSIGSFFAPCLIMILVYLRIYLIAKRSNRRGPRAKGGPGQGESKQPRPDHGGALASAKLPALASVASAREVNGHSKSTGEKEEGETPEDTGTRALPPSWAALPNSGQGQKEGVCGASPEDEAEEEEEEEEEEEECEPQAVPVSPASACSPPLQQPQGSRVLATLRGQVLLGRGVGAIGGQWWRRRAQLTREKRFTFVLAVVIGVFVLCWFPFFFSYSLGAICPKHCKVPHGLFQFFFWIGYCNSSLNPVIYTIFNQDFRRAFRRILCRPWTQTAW
Kind of assay: Radioligand binding, adrenergic α2B (Protocol Group B). As to conditions: Protocol Group B; for inhibition at 0.01 µM / Percentage inhibition of ligand binding, Adrenergic α2B (10 nM): 10 nM compound; for inhibition at 0.01 µM: read-out: Percentage inhibition of ligand binding, Adrenergic α2B (10 nM); for Percentage inhibition of ligand binding, Adrenergic α2B (30 nM): 0.03 µM; for Percentage inhibition of ligand binding, Adrenergic α2B (10 nM): 0.01 µM. How it is done:
To evaluate the activity of compounds in radioligand binding assays, Human adrenergic α2B receptor obtained from recombinant cell membrane from Milipore. Binding experiments were carried out in Tris-HCl buffer (50 mM Tris-HCl buffer, pH 7.4, 5 mM Mgcl2, 1 mM Cacl2, 0.2% BSA) as recommended by Milipore. […] Non-specific binding was estimated in the presence of 10 μM Rauwolscine. […] Compounds were screened at various concentrations, using 1% DMSO as vehicle. Biochemical assay results are presented as the percent Inhibition of specific binding in Table B1b, or estimated Ki values in Table B1c.

Assay [3] concerns the target T3, Human adrenergic α2A receptor (Homo sapiens, UniProt P08913).
T3 sequence (P08913 1-465): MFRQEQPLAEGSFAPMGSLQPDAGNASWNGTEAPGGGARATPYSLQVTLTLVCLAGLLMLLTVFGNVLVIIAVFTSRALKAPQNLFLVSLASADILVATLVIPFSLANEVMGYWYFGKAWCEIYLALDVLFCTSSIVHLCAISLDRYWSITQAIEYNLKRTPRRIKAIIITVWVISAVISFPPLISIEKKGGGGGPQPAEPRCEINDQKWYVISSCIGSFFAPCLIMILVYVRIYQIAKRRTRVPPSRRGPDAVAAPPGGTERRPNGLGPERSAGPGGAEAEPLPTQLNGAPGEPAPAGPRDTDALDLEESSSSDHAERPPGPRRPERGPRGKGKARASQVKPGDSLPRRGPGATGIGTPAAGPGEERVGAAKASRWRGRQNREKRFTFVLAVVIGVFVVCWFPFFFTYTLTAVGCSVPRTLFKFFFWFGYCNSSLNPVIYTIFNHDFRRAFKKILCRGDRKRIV
As to the kind of experiment: Radioligand binding, adrenergic α2A (Protocol Group B). The following applies: Protocol Group B; for Percentage inhibition of ligand binding, Adrenergic α2A (0.1 μM): 0.1 μM compound; for Percentage inhibition of ligand binding, Adrenergic α2A (0.3 μM) / inhibition at 0.3 µM: 0.3 μM compound; for inhibition at 0.3 µM: read-out: Percentage inhibition of ligand binding, Adrenergic α2A (0.3 μM). How it is done:
To evaluate the activity of compounds in radioligand binding assays, Human adrenergic α2A receptor obtained from recombinant cell membrane from Milipore. Binding experiments were carried out in Tris-HCl buffer (50 mM Tris-HCl buffer, pH 7.4, 5 mM Mgcl2, 1 mM Cacl2, 0.2% BSA) as recommended by Milipore. Compounds were incubated with 2 nM [^3H]MK-912 for 60 min at 25° C. Non-specific binding was estimated in the presence of 10 μM Rauwolscine. Receptor proteins were harvested on 0.33% PEI(poly-ethylenemine) soaked GFC filter mat, the specifically bound [^3H]MK-912 were counted to determine total binding. Compounds were screened at various concentrations, using 1% DMSO as vehicle. percent inhibition of specific binding was determined. Biochemical assay results are presented as the percent Inhibition of specific binding in Table B1b, or estimated Ki values in Table B1c.

Broadly, the inhibition is the change of the read-out against control, counted positive when it falls.

SMILES strings stand for the structures.

In the case of `Cc1ccc2c(c1)c1c(n2CC(O)c2ccncc2)CNC2CCCC12` (single isomer, unassigned) [34a], in assay [1], the “Percentage inhibition of ligand binding, Adrenergic α1B (0.1 μM)” value was −2% and the “Percentage inhibition of ligand binding, Adrenergic α1B (0.3 μM)” value is given as −10%. The inhibition at 0.01 µM in assay [2] was determined as 21%. Further, the “Percentage inhibition of ligand binding, Adrenergic α2B (30 nM)” value (“Percentage inhibition … (30 nM)” for short) in assay [2] (30 nM compound) is on record as −12%. For the same molecule, in assay [2] (0.1 μM compound), the “Percentage inhibition of ligand binding, Adrenergic α2B (0.1 μM)” value is −11%. In addition, the “Percentage inhibition of ligand binding, Adrenergic α2A (0.1 μM)” value in assay [3] is listed as −9%. The “Percentage inhibition of ligand binding, Adrenergic α2A (0.3 μM)” value in assay [3] (0.3 µM) was −5%.
For `Cc1ccc2c(c1)c1c(n2CC(O)c2ccncc2)CNC2CCCC12` (single isomer, unassigned) [34b], in assay [1], the “Percentage inhibition of ligand binding, Adrenergic α1B (0.1 μM)” value is −16% and the “Percentage inhibition of ligand binding, Adrenergic α1B (0.3 μM)” value is listed as 12%. Besides, the “Percentage inhibition of ligand binding, Adrenergic α2B (10 nM)” value (“Percentage inhibition … (10 nM)” for short) in assay [2] was determined as 15%. Also, the “Percentage inhibition … (30 nM)” value in assay [2] (30 nM compound) came out at 6%. Further, in assay [2] (0.1 μM compound), the “Percentage inhibition of ligand binding, Adrenergic α2B (0.1 μM)” value came to 32%. Moreover, the “Percentage inhibition of ligand binding, Adrenergic α2A (0.1 μM)” value in assay [3] is on record as −7%. Also, the “Percentage inhibition of ligand binding, Adrenergic α2A (0.3 μM)” value in assay [3] (0.3 µM) is recorded as −2%.
As for `Cc1ccc2c(c1)c1c(n2CC(O)c2ccncc2)CNC2CCCC12` (single isomer, unassigned) [34d], in assay [1], the “Percentage inhibition of ligand binding, Adrenergic α1B (0.1 μM)” value was 6% and the “Percentage inhibition of ligand binding, Adrenergic α1B (0.3 μM)” value came out at 22%. Also, in assay [2], the “Percentage inhibition … (10 nM)” value is 14%. Further, the “Percentage inhibition … (30 nM)” value in assay [2] (30 nM compound) came out at 2%. Moreover, the “Percentage inhibition of ligand binding, Adrenergic α2B (0.1 μM)” value in assay [2] (0.1 μM compound) came to 25%. The “Percentage inhibition of ligand binding, Adrenergic α2A (0.1 μM)” value in assay [3] is given as −2%. Also, the “Percentage inhibition of ligand binding, Adrenergic α2A (0.3 μM)” value in assay [3] (0.3 µM) is −1%.
In the case of `Cc1ccc2c(c1)c1c(n2CC(O)c2ccncc2)CN(C)C2CCCC12` (single isomer, unassigned) [36a], in assay [1], the “Percentage inhibition of ligand binding, Adrenergic α1B (0.1 μM)” value was −2% and the “Percentage inhibition of ligand binding, Adrenergic α1B (0.3 μM)” value came to 12%. In assay [2], the “Percentage inhibition … (10 nM)” value amounted to 8%. The “Percentage inhibition … (30 nM)” value in assay [2] (30 nM compound) is reported as −5%. Besides, the “Percentage inhibition of ligand binding, Adrenergic α2B (0.1 μM)” value in assay [2] (0.1 μM compound) is recorded as −3%. Besides, in assay [3], the “Percentage inhibition of ligand binding, Adrenergic α2A (0.1 μM)” value was −16% and the inhibition at 0.3 µM was -5%.
Turning to `Cc1ccc2c(c1)c1c(n2CC(O)c2ccncc2)CN(C)C2CCCC12` (single isomer, unassigned) [36b], in assay [1], the “Percentage inhibition of ligand binding, Adrenergic α1B (0.1 μM)” value was determined as 0% and the “Percentage inhibition of ligand binding, Adrenergic α1B (0.3 μM)” value was determined as 5%. The “Percentage inhibition … (10 nM)” value in assay [2] is listed as −19%. Further, in assay [2] (30 nM compound), the “Percentage inhibition … (30 nM)” value is −14%. Also, in assay [2] (0.1 μM compound), the “Percentage inhibition of ligand binding, Adrenergic α2B (0.1 μM)” value is given as −10%. In addition, in assay [3], the “Percentage inhibition of ligand binding, Adrenergic α2A (0.1 μM)” value is −7% and the “Percentage inhibition of ligand binding, Adrenergic α2A (0.3 μM)” value was −5%.
On to `Cc1ccc2c(c1)c1c(n2CC(C)(O)c2ccncc2)CC2CCCN2C1` (single isomer, unassigned) [37a], for which, in assay [1], the “Percentage inhibition of ligand binding, Adrenergic α1B (0.1 μM)” value turned out to be 26% and the “Percentage inhibition of ligand binding, Adrenergic α1B (0.3 μM)” value is listed as 34%. Moreover, the inhibition at 0.01 µM in assay [2] came to 27%. The inhibition at 0.03 µM in assay [2] (30 nM compound, read-out: Percentage inhibition of ligand binding, Adrenergic α2B (30 nM)) was 50%. The inhibition at 0.1 µM in assay [2] (0.1 μM compound, read-out: Percentage inhibition of ligand binding, Adrenergic α2B (0.1 μM)) was determined as 69%. In assay [3], the “Percentage inhibition of ligand binding, Adrenergic α2A (0.1 μM)” value is given as 14% and the inhibition at 0.3 µM worked out at 21%.
For `Cc1ccc2c(c1)c1c(n2CC(C)(O)c2ccncc2)CC2CCCN2C1` (single isomer, unassigned) [37b], in assay [1], the “Percentage inhibition of ligand binding, Adrenergic α1B (0.1 μM)” value was 40% and the “Percentage inhibition of ligand binding, Adrenergic α1B (0.3 μM)” value is listed as 68%. The “Percentage inhibition … (10 nM)” value in assay [2] was 25%. For the same molecule, the “Percentage inhibition … (30 nM)” value in assay [2] (30 nM compound) came out at 48%. The “Percentage inhibition of ligand binding, Adrenergic α2B (0.1 μM)” value in assay [2] (0.1 μM compound) is recorded as 75%. The “Percentage inhibition of ligand binding, Adrenergic α2A (0.1 μM)” value in assay [3] was 15%. In addition, in assay [3] (0.3 µM), the “Percentage inhibition of ligand binding, Adrenergic α2A (0.3 μM)” value is given as 17%.

These data come from patent US20150315188A1, “COMPOUNDS AND METHODS FOR TREATMENT OF HYPERTENSION” (MEDIVATION TECHNOLOGIES, INC., priority 2012, published 2015).
